Data on twelve molecules can be found in ChEMBL document CHEMBL4616724, “Topoisomerase Inhibitors Addressing Fluoroquinolone Resistance in Gram-Negative Bacteria” (J Med Chem, 2020).

Values after ≈ are worked out from the molar mass of the structure shown.

The subject of one assay is Escherichia coli. The assay can be described thus: Antibacterial activity against wild type Escherichia coli ATCC 25922 at pH 7.4 by CLSI-based broth microdilution assay. It is filed as functional.
Take `Cc1c(N2CC[C@@H]([C@H](C)N)C2)c(F)cc2c(=O)n(N)c(=O)n(C3CC3)c12`: the MIC amounted to 1 µg/mL (≈ 2.77 µM).
The molecule `Cc1c(N2C[C@@]3(C)C[C@@]3(N)C2)c(F)cc2c(CN)cc(=O)n(C3CC3)c12` (racemic) gave an MIC of 0.125 µg/mL (≈ 0.351 µM).
Still for that read-out and setting: then `Cc1c(N2CC[C@@H]([C@H](C)N)C2)c(F)cc2c(OCCN(C)C)cc(=O)n(C3CC3)c12`, with 1 µg/mL (≈ 2.4 µM).
On the same count and under the same terms, the value for `NCc1cc(=O)n(C2CC2)c2c(OC(F)F)c(N3CC4CC4(N)C3)c(F)cc12` (stereo unspecified) was 2 µg/mL (≈ 5.07 µM); that for `Cc1c(N2C[C@H]3CC[C@@]3(N)C2)c(F)cc2c(CN)cc(=O)n(C3CC3)c12` (racemic) was 2 µg/mL (≈ 5.61 µM).
Regarding `Cc1c(N2CCC3CC3(N)C2)c(F)cc2c(CN)cc(=O)n(C3CC3)c12` (stereo unspecified), the MIC stood at 4 µg/mL (≈ 11.2 µM).
The same measure, in the same setting: then `Cc1c(N2CC[C@@H]([C@H](C)N)C2)c(F)cc2c(CO)cc(=O)n(C3CC3)c12`, with 16 µg/mL (≈ 44.5 µM); and `Cc1c(CN)c2cc(F)c(N3CC4CC4(N)C3)c(C)c2n(C2CC2)c1=O` (stereo unspecified), with 0.25 µg/mL (≈ 0.701 µM).
Turning to `Cc1c(N2CCNCC2)c(F)cc2c(CN)cc(=O)n(C3CC3)c12`, the minimum inhibitory concentration (MIC) lay within 0.25 to 4 µg/mL (≈ 0.757 to 12.1 µM).
Same read-out and setting: the value for `Cc1c(N2CC3CC3(N)C2)c(F)cc2c(CN)c(O)c(=O)n(C3CC3)c12` (stereo unspecified) was 0.5 µg/mL (≈ 1.4 µM); that for `Cc1c(N2CC[C@@H](N)C2)c(F)cc2c(CN)cc(=O)n(C3CC3)c12` was 16 µg/mL (≈ 48.4 µM); that for `NCc1cc(=O)n(C2CC2)c2cc(N3CC4CC4(N)C3)c(F)cc12` (stereo unspecified) was 1 µg/mL (≈ 3.05 µM).

In a further assay the test system is Pseudomonas aeruginosa. The assay can be described thus: Antibacterial activity against wild type Pseudomonas aeruginosa PAO1 K767 by CLSI-based broth microdilution assay. It is filed as functional.
Molecule `Cc1c(N2CC[C@@H]([C@H](C)N)C2)c(F)cc2c(=O)n(N)c(=O)n(C3CC3)c12` had an MIC of 4 µg/mL (≈ 11.1 µM).
For `Cc1c(N2C[C@@]3(C)C[C@@]3(N)C2)c(F)cc2c(CN)cc(=O)n(C3CC3)c12` (racemic), the minimal inhibitory concentration (MIC) turned out to be 4 µg/mL (≈ 11.2 µM).
The same measure, in the same setting: the value for `Cc1c(N2CC[C@@H]([C@H](C)N)C2)c(F)cc2c(OCCN(C)C)cc(=O)n(C3CC3)c12` was 8 µg/mL (≈ 19.2 µM); that for `NCc1cc(=O)n(C2CC2)c2c(OC(F)F)c(N3CC4CC4(N)C3)c(F)cc12` (stereo unspecified) was greater than 32 µg/mL; that for `Cc1c(N2C[C@H]3CC[C@@]3(N)C2)c(F)cc2c(CN)cc(=O)n(C3CC3)c12` (racemic) was 8 µg/mL (≈ 22.4 µM).
For the molecule `Cc1c(N2CCC3CC3(N)C2)c(F)cc2c(CN)cc(=O)n(C3CC3)c12` (stereo unspecified), 16 µg/mL (≈ 44.9 µM) was the least that counted as inhibitory (MIC).
Still for that read-out and setting: the value for `Cc1c(N2CC[C@@H]([C@H](C)N)C2)c(F)cc2c(CO)cc(=O)n(C3CC3)c12` was 16 µg/mL (≈ 44.5 µM).
For the molecule `Cc1c(CN)c2cc(F)c(N3CC4CC4(N)C3)c(C)c2n(C2CC2)c1=O` (stereo unspecified), the lowest concentration to inhibit growth (MIC) was 8 µg/mL (≈ 22.4 µM).
On the same count and under the same terms, the value for `Cc1c(N2CCNCC2)c(F)cc2c(CN)cc(=O)n(C3CC3)c12` was 4 to 8 µg/mL (≈ 12.1 to 24.2 µM); that for `Cc1c(N2CC3CC3(N)C2)c(F)cc2c(CN)c(O)c(=O)n(C3CC3)c12` (stereo unspecified) was 2 µg/mL (≈ 5.58 µM); that for `Cc1c(N2CC[C@@H](N)C2)c(F)cc2c(CN)cc(=O)n(C3CC3)c12` was greater than 32 µg/mL.
On the same count and under the same terms, the value for `NCc1cc(=O)n(C2CC2)c2cc(N3CC4CC4(N)C3)c(F)cc12` (stereo unspecified) was 16 µg/mL (≈ 48.7 µM).

System in a further assay: not listed separately
Put plainly: Inhibition of recombinant full-length C-terminal His6-tagged Escherichia coli DNA topoisomerase 4 subunit ParC/ParE using kinetoplast DNA as substrate preincubated for 30 mins followed by substrate addition and measured after 1 hr in presence of ATP by size exclusion chromatography.
With `Cc1c(N2CC[C@@H]([C@H](C)N)C2)c(F)cc2c(=O)n(N)c(=O)n(C3CC3)c12`, the IC50 is 220 nM.

Another assay relates to Klebsiella pneumoniae. The assay can be described thus: Antibacterial activity against wild type Klebsiella pneumoniae ATCC 43816 by CLSI-based broth microdilution assay. The format is functional.
`Cc1c(N2CC[C@@H]([C@H](C)N)C2)c(F)cc2c(=O)n(N)c(=O)n(C3CC3)c12` displayed an MIC of 2 µg/mL (≈ 5.53 µM).
Consider `Cc1c(N2C[C@@]3(C)C[C@@]3(N)C2)c(F)cc2c(CN)cc(=O)n(C3CC3)c12` (racemic), for which the MIC amounted to 0.25 µg/mL (≈ 0.701 µM).
On the same count and under the same terms, the value for `Cc1c(N2CC[C@@H]([C@H](C)N)C2)c(F)cc2c(OCCN(C)C)cc(=O)n(C3CC3)c12` was 4 µg/mL (≈ 9.6 µM).
The same measure, in the same setting: then `NCc1cc(=O)n(C2CC2)c2c(OC(F)F)c(N3CC4CC4(N)C3)c(F)cc12` (stereo unspecified), with 8 µg/mL (≈ 20.3 µM); and `Cc1c(N2C[C@H]3CC[C@@]3(N)C2)c(F)cc2c(CN)cc(=O)n(C3CC3)c12` (racemic), with 4 µg/mL (≈ 11.2 µM); and `Cc1c(N2CCC3CC3(N)C2)c(F)cc2c(CN)cc(=O)n(C3CC3)c12` (stereo unspecified), with 4 µg/mL (≈ 11.2 µM).
Same read-out and setting: then `Cc1c(N2CC[C@@H]([C@H](C)N)C2)c(F)cc2c(CO)cc(=O)n(C3CC3)c12`, with 32 µg/mL (≈ 89 µM); and `Cc1c(CN)c2cc(F)c(N3CC4CC4(N)C3)c(C)c2n(C2CC2)c1=O` (stereo unspecified), with 1 µg/mL (≈ 2.81 µM); and `Cc1c(N2CCNCC2)c(F)cc2c(CN)cc(=O)n(C3CC3)c12`, with 0.5 to 2 µg/mL (≈ 1.51 to 6.05 µM).
For `Cc1c(N2CC3CC3(N)C2)c(F)cc2c(CN)c(O)c(=O)n(C3CC3)c12` (stereo unspecified), the MIC turned out to be 1 µg/mL (≈ 2.79 µM).
Still for that read-out and setting: the value for `Cc1c(N2CC[C@@H](N)C2)c(F)cc2c(CN)cc(=O)n(C3CC3)c12` was 8 µg/mL (≈ 24.2 µM); that for `NCc1cc(=O)n(C2CC2)c2cc(N3CC4CC4(N)C3)c(F)cc12` (stereo unspecified) was 4 µg/mL (≈ 12.2 µM).

For a further assay, the system named is Pseudomonas aeruginosa. Put plainly: Antibacterial activity against Pseudomonas aeruginosa K1542/K767 harboring MexB/MexXY deletion mutant by CLSI-based broth microdilution assay. It is filed as functional.
As for `Cc1c(N2CC[C@@H]([C@H](C)N)C2)c(F)cc2c(=O)n(N)c(=O)n(C3CC3)c12`, the MIC came to 1 µg/mL (≈ 2.77 µM).
Same read-out and setting: then `Cc1c(N2C[C@@]3(C)C[C@@]3(N)C2)c(F)cc2c(CN)cc(=O)n(C3CC3)c12` (racemic), with 1 µg/mL (≈ 2.81 µM); and `Cc1c(N2CC[C@@H]([C@H](C)N)C2)c(F)cc2c(OCCN(C)C)cc(=O)n(C3CC3)c12`, with 4 µg/mL (≈ 9.6 µM).
Still for that read-out and setting: the value for `NCc1cc(=O)n(C2CC2)c2c(OC(F)F)c(N3CC4CC4(N)C3)c(F)cc12` (stereo unspecified) was 8 µg/mL (≈ 20.3 µM); that for `Cc1c(N2C[C@H]3CC[C@@]3(N)C2)c(F)cc2c(CN)cc(=O)n(C3CC3)c12` (racemic) was 2 µg/mL (≈ 5.61 µM); that for `Cc1c(N2CCC3CC3(N)C2)c(F)cc2c(CN)cc(=O)n(C3CC3)c12` (stereo unspecified) was 4 µg/mL (≈ 11.2 µM).
On the same count and under the same terms, then `Cc1c(N2CC[C@@H]([C@H](C)N)C2)c(F)cc2c(CO)cc(=O)n(C3CC3)c12`, with 4 µg/mL (≈ 11.1 µM); and `Cc1c(CN)c2cc(F)c(N3CC4CC4(N)C3)c(C)c2n(C2CC2)c1=O` (stereo unspecified), with 1 µg/mL (≈ 2.81 µM).
Consider `Cc1c(N2CCNCC2)c(F)cc2c(CN)cc(=O)n(C3CC3)c12`, for which the MIC was 0.5 to 1 µg/mL (≈ 1.51 to 3.03 µM).
On the same count and under the same terms, the value for `Cc1c(N2CC3CC3(N)C2)c(F)cc2c(CN)c(O)c(=O)n(C3CC3)c12` (stereo unspecified) was 0.5 µg/mL (≈ 1.4 µM); that for `Cc1c(N2CC[C@@H](N)C2)c(F)cc2c(CN)cc(=O)n(C3CC3)c12` was 8 µg/mL (≈ 24.2 µM); that for `NCc1cc(=O)n(C2CC2)c2cc(N3CC4CC4(N)C3)c(F)cc12` (stereo unspecified) was 2 µg/mL (≈ 6.09 µM).

The test system of a further assay is Pseudomonas aeruginosa. The assay can be described thus: Antibacterial activity against Pseudomonas aeruginosa NB52023 harboring gyrA T83I mutant/ParC S87L mutant by CLSI-based broth microdilution assay. The format is functional.
Molecule `Cc1c(N2CC[C@@H]([C@H](C)N)C2)c(F)cc2c(=O)n(N)c(=O)n(C3CC3)c12` returned an MIC of 2 µg/mL (≈ 5.53 µM).
Still for that read-out and setting: the value for `Cc1c(N2C[C@@]3(C)C[C@@]3(N)C2)c(F)cc2c(CN)cc(=O)n(C3CC3)c12` (racemic) was 2 µg/mL (≈ 5.61 µM); that for `Cc1c(N2CC[C@@H]([C@H](C)N)C2)c(F)cc2c(OCCN(C)C)cc(=O)n(C3CC3)c12` was 8 µg/mL (≈ 19.2 µM); that for `NCc1cc(=O)n(C2CC2)c2c(OC(F)F)c(N3CC4CC4(N)C3)c(F)cc12` (stereo unspecified) was 32 µg/mL (≈ 81.1 µM).
Same read-out and setting: then `Cc1c(N2C[C@H]3CC[C@@]3(N)C2)c(F)cc2c(CN)cc(=O)n(C3CC3)c12` (racemic), with 4 µg/mL (≈ 11.2 µM); and `Cc1c(N2CCC3CC3(N)C2)c(F)cc2c(CN)cc(=O)n(C3CC3)c12` (stereo unspecified), with 16 µg/mL (≈ 44.9 µM); and `Cc1c(N2CC[C@@H]([C@H](C)N)C2)c(F)cc2c(CO)cc(=O)n(C3CC3)c12`, with 8 µg/mL (≈ 22.3 µM).
Still for that read-out and setting: the value for `Cc1c(CN)c2cc(F)c(N3CC4CC4(N)C3)c(C)c2n(C2CC2)c1=O` (stereo unspecified) was 2 µg/mL (≈ 5.61 µM); that for `Cc1c(N2CCNCC2)c(F)cc2c(CN)cc(=O)n(C3CC3)c12` was 1 to 2 µg/mL (≈ 3.03 to 6.05 µM); that for `Cc1c(N2CC3CC3(N)C2)c(F)cc2c(CN)c(O)c(=O)n(C3CC3)c12` (stereo unspecified) was 2 µg/mL (≈ 5.58 µM).
As for `Cc1c(N2CC[C@@H](N)C2)c(F)cc2c(CN)cc(=O)n(C3CC3)c12`, the MIC was determined as 32 µg/mL (≈ 96.9 µM).
Same read-out and setting: then `NCc1cc(=O)n(C2CC2)c2cc(N3CC4CC4(N)C3)c(F)cc12` (stereo unspecified), with 4 µg/mL (≈ 12.2 µM).

Another assay relates to Escherichia coli. Put plainly: Antibacterial activity against Escherichia coli BW25113/JW0451-2 harboring AcrB deletion mutant by CLSI-based broth microdilution assay. It is filed as functional.
As to `Cc1c(N2C[C@@]3(C)C[C@@]3(N)C2)c(F)cc2c(CN)cc(=O)n(C3CC3)c12` (racemic), the MIC was no more than 0.03 µg/mL.
Same read-out and setting: then `NCc1cc(=O)n(C2CC2)c2c(OC(F)F)c(N3CC4CC4(N)C3)c(F)cc12` (stereo unspecified), with 1 µg/mL (≈ 2.54 µM); and `Cc1c(N2C[C@H]3CC[C@@]3(N)C2)c(F)cc2c(CN)cc(=O)n(C3CC3)c12` (racemic), with 0.25 µg/mL (≈ 0.701 µM); and `Cc1c(N2CCC3CC3(N)C2)c(F)cc2c(CN)cc(=O)n(C3CC3)c12` (stereo unspecified), with 1 µg/mL (≈ 2.81 µM).
`Cc1c(N2CC[C@@H]([C@H](C)N)C2)c(F)cc2c(CO)cc(=O)n(C3CC3)c12` displayed an MIC of 0.25 µg/mL (≈ 0.696 µM).
Still for that read-out and setting: the value for `Cc1c(CN)c2cc(F)c(N3CC4CC4(N)C3)c(C)c2n(C2CC2)c1=O` (stereo unspecified) was 0.125 µg/mL (≈ 0.351 µM); that for `Cc1c(N2CCNCC2)c(F)cc2c(CN)cc(=O)n(C3CC3)c12` was 0.06 to 1 µg/mL (≈ 0.182 to 3.03 µM); that for `Cc1c(N2CC3CC3(N)C2)c(F)cc2c(CN)c(O)c(=O)n(C3CC3)c12` (stereo unspecified) was 0.25 µg/mL (≈ 0.698 µM).
Still for that read-out and setting: the value for `Cc1c(N2CC[C@@H](N)C2)c(F)cc2c(CN)cc(=O)n(C3CC3)c12` was 2 µg/mL (≈ 6.05 µM); that for `NCc1cc(=O)n(C2CC2)c2cc(N3CC4CC4(N)C3)c(F)cc12` (stereo unspecified) was 0.5 µg/mL (≈ 1.52 µM).
